# From patent US20250338846A1, “COMPOSITIONS HAVING PESTICIDAL UTILITY AND PROCESSES RELATED THERETO” (CORTEVA AGRISCIENCE, LLC, priority 2022, published 2025)
# Key:
# Assay type in all cases: in vivo
# [1] = test system: Sweet Potato Whitefly (Bemisia tabaci, BEMITA); assay: Bioassay 8: Sweet Potato Whitefly, spray on cotton seedlings at crawler emergence, nymphs counted 7-9 days after treatment; settings: AI alone 0.1 (10^-5) Wt %
# Method: where X=No. of live aphids on solvent check plants and Y=No. of live aphids on treated plants. In Table B1 the “Expected % Control” was calculated using the method described in Colby S. R., Weeds, 1967, 15, 20-22. Bioassay 8: Sweet Potato Whitefly (Bemisia tabaci, BEMITA) (“SPW”).
# (§1) Stock solutions were prepared with Formula One as well as for each of the active ingredients individually. Test solutions were prepared from the stock solutions. Test solutions were prepared containing Formula One, the individual active ingredients, and mixtures of Formula One with each of the active ingredients. The test solutions for Formula One and the individual active ingredients were prepared by adding 500 μL of stock solution to a 25 mL glass vial, then adding 500 μL of acetone, followed by the addition of 9 mL water with 0.025% Tween®) 20 to create a 0.001% (w/v) solution. The test solutions containing mixtures of Formula One and the individual active ingredients were prepared by adding 500 μL of the active ingredient stock solution to a 25 mL glass vial, followed by 500 μL of the Formula One stock solution, then by the addition of 9 mL water with 0.025% Tween®) 20 to create a test solution containing 0.001% (w/v) Formula One and 0.001% (w/v) of the active ingredient. Each test solution was serially diluted to create desired doses of test solutions (0.001% (w/v), 0.0001% (w/v), 0.00001% (w/v), 0.000001% (w/v), 0.0000001% (w/v), 0.000008% (w/v) and 0.00000001% (w/v)).
# (§2) The test solutions were tested against SPW using the following procedure: Cotton seedlings grown in 3-inch pots, pruned so that only one true leaf remained, were used as test substrate. Adult B. tabaci were allowed to colonize the cotton plants and lay eggs for 24 hours after which all adults were removed from the plants using compressed air. Plants were monitored for egg development and, when crawler emergence was underway (>25% emergence based on visual examination using a microscope), the plants were sprayed using the test solutions and methods described above for green peach aphids (GPA). Treated plants were held in a holding room at approximately 25° C. and ambient relative humidity (RH) prior to grading. Evaluation was conducted by counting the number of developed 2-3 instar nymphs per plant under a microscope 7-9 days after treatment. Percent control was measured using Abbott's correction formula (W. S. Abbott, J. Econ. Entomol. 18 (1925), pp. 265-267) as follows:
# where X=No. of live nymphs on solvent check plants and Y=No. of live nymphs on treated plants. In Table B2 the “Expected % Control” was calculated using the method described in Colby S. R., Weeds, 1967, 15, 20-22. Bioassay 9: Diamondback Moth (Plutella xylostella, PLUTMA) (DBM).
# [2] = test system: Western Tarnished Plant Bug (Lygus hesperus, LYGUHE); assay: Bioassay 4: Western Tarnished Plant Bug, soaked green bean segments, living nymphs 3 days after application
# Method: where X=No. of live nymphs on solvent check leaf discs and Y=No. of live nymphs on treated leaf discs. In Table B3 the “Expected % Control” was calculated using the method described in Colby S. R., Weeds, 1967, 15, 20-22. Bioassay 4: Western Tarnished Plant Bug (Lygus hesperus, LYGUHE) (“WTPB”).
# (§3) Stock solutions were prepared with Formula One as well as for each of the active ingredients individually. Test solutions were prepared from the stock solutions. Test solutions were prepared containing Formula One, the individual active ingredients, and mixtures of Formula One with each of the active ingredients. The test solution for Formula One was prepared by adding 500 μL of the stock solution to a 25 mL glass vial, then adding 500 μL of acetone, followed by the addition of 9 mL water with 0.025% Tween®) 20 to create a 0.04% (w/v) solution. The test solutions of the individual active ingredients were prepared by adding 500 μL of stock solution to a 25 mL glass vial, then adding 500 μL of acetone, followed by the addition of 9 mL water with 0.025% Tween®) 20 to create a 0.005% (w/v) solution. The test solutions containing mixtures of Formula One and the individual active ingredients were prepared by adding 500 μL of the active ingredient stock solution to a 25 mL glass vial, followed by 500 μL of the Formula One stock solution, then by the addition of 9 mL water with 0.025% Tween®) 20 to create a test solution containing 0.04% (w/v) Formula One and 0.005% (w/v) of the active ingredient. Each test solution was serially diluted to create desired doses of test solutions (0.005% (w/v), 0.00125% (w/v), 0.0003125% (w/v), 0.000078% (w/v), and 0.0000195% (w/v)). In test solutions containing mixtures of Formula One and the active ingredients, the active ingredients were diluted as described above, but the Concentration of Formula One was held constant (0.04% (w/v)).
# The test solutions were tested against WTPB using the following procedure: Fresh green beans were cut into segments approximately 1.5 inches long. Four bean segments were added to each 25 mL vial containing the test solutions and soaked for approximately 15 minutes. After soaking, a single bean fragment was removed and placed into a single well of a 32-well rearing tray (Frontier Agricultural Sciences™), on top of a round filter paper disc. A reference treatment (solvent check) was treated with the diluent only. Each treatment was replicated four times and the test treatments were held at approximately 26° C. and ambient relative humidity (RH) prior to grading. Bean segments were allowed to air dry for ˜30 minutes. Three WTPB nymphs were added to and contained in each well with a clear perforated adhesive lid. The total number of living WTPB nymphs was recorded 3 days after application. Scoring was based off the total number of living nymphs out of all four replicates. Percent control was measured using Abbott's correction formula (W. S. Abbott, J. Econ. Entomol. 18 (1925), pp. 265-267) as follows:
# (§4) X=No. of live nymphs on solvent check and Y=No. of live nymphs on treated bean segments. In Table B4 the “Expected % Control” was calculated using the method described in Colby S. R., Weeds, 1967, 15, 20-22. Bioassay 5: Neotropical Brown Stink Bug (Euschistus heros, EUSCHE) (“BSB”).
# [3] = test system: Neotropical Brown Stink Bug (Euschistus heros, EUSCHE); assay: whole plant or invertebrate
# Method: as §4
# as §3, with “The” for “The test solutions of the”, “(0.01%” for “(0.005%”, “0.0025%” for “0.00125%”, “0.000625%” for “0.0003125%”, “0.000156%” for “0.000078%”, “0.000039%” for “0.0000195%”
# The test solutions that were tested against BSB were similar to those described above for WTPB. Fresh green beans were cut into segments approximately 1.5 inches long. Four bean segments were added to each test solution and soaked for approximately 15 minutes. After soaking, a single bean fragment was removed and placed into a single well of a 32-well rearing tray (Frontier Agricultural Sciences™), on top of a round filter paper disc. A reference treatment (solvent check) was treated with the diluent only. Each treatment was replicated four times and the test treatments were held at approximately 26° C. and ambient relative humidity (RH) prior to grading. Bean segments were allowed to air dry for ˜30 minutes. Three BSB nymphs were added to and contained in each well with a clear perforated adhesive lid. The total number of living BSB nymphs was recorded 3 days after application. Scoring was based off the total number of living nymphs out of all four replicates. Percent control was measured using Abbott's correction formula (W. S. Abbott, J. Econ. Entomol. 18 (1925), pp. 265-267) as follows:
# where X=No. of live nymphs on solvent check and Y=No. of live nymphs on treated bean segments. In Table B5 the “Expected % Control” was calculated using the method described in Colby S. R., Weeds, 1967, 15, 20-22. Bioassay 6: Beet Armyworm (Spodoptera exigua, LAPHEG) (BAW), and Diamondback Moth (Plutella xylostella, PLUTMA) (DBM).
# [4] = test system: Sweet Potato Whitefly (Bemisia tabaci, BEMITA); assay: Bioassay 2: Sweet Potato Whitefly, spray on cotton seedlings at crawler emergence, nymphs counted 7-9 days after treatment; settings: AI alone 1 (10-5) % w/v
# Method: as §1, with “(w/v),” for “(w/v), 0.000008% (w/v)”
# as §2
# where X=No. of live nymphs on solvent check plants and Y=No. of live nymphs on treated plants. In Table B2 the “Expected % Control” was calculated using the method described in Colby S. R., Weeds, 1967, 15, 20-22. Bioassay 3: Western Flower Thrips (Frankliniella occidentalis, FRANOC) (“WFT”).
compound,measurement,setting,value
CC1(C)C(C=C(Cl)Cl)C1C(=O)OC(C#N)c1ccc(F)c(Oc2ccccc2)c1 (stereo not drawn) [Cyfluthrin],Average % Control A1,[1],46.90%
CC(c1ccc(C(F)(F)F)nc1)S(C)(=O)=NC#N (stereo not drawn) [Sulfoxaflor],Average % Control AI,[2]; AI alone 0.0003125 % w/v,0%
same,pest or weed control at 0.0025 % strength,"[3]; Euschistus heros, 72 h, AI alone 0.0025 % w/v, read-out: Average % Control AI",58%
Spinetoram,Average % Control AI,[4],41%
same,Average % Control AI,[2]; AI alone 0.005 % w/v,0%
same,Average % Control AI,[3]; AI alone 0.000625 % w/v,8%
